The supplement of paper PMC10307832

Tests used:
Assay in all cases: relative viability (nuclei count vs DMSO), 5 days (fraction); higher = more cells survive
Sulindac + Phenformin = compound: CC1=C(CC(=O)O)c2cc(F)ccc2/C1=C\c1ccc([S+](C)[O-])cc1 [Sulindac] + N=C(N)NC(=N)NCCc1ccccc1 [Phenformin] (partner 250 µM)
Outline: (§1)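 A single step with final 0.05% Triton X-100, 1% formaldehyde and 1 ug/ml Hoechst fixed the cells and stained nuclei 5 days after treatment. Lung cancer cell lines in 1536-well plates had been treated by pin tool the day after seeding with one drug alone or a fixed anchor-drug dose plus five library-drug doses (not always all listed) in √10 steps, and nuclei were counted on 4× images. Relative viability is the ratio of nuclei in treated wells to nuclei in vehicle wells, taken as the median of duplicate plates.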

Sulindac + OSI-027 = compound: CC1=C(CC(=O)O)c2cc(F)ccc2/C1=C\c1ccc([S+](C)[O-])cc1 [Sulindac] + COc1cccc2cc(-c3nc([C@H]4CC[C@H](C(=O)O)CC4)n4ncnc(N)c34)[nH]c12 [OSI-027] (partner 0.5 µM)
Outline: as §1

[1] = compound: CN[C@@H]1C[C@H]2O[C@@](C)([C@@H]1OC)n1c3ccccc3c3c4c(c5c6ccccc6n2c5c31)C(=O)NC4 [Staurosporine] + CC(C)C[C@H](NC(=O)[C@H](Cc1ccccc1)NC(=O)c1cnccn1)B(O)O [Bortezomib] (partner 0.002 µM)
Outline: as §1

[2] = compound: O=c1[nH]cc(F)c(=O)[nH]1 [5-Fluorouracil] + CC(C)C[C@H](NC(=O)[C@H](Cc1ccccc1)NC(=O)c1cnccn1)B(O)O [Bortezomib] (partner 0.002 µM)
Outline: as §1

Row | Cell Line | relative viability (Sulindac + Phenformin; first compound 0.08 µM) | relative viability (Sulindac + Phenformin; first compound 0.253 µM) | relative viability (Sulindac + Phenformin; first compound 0.8 µM) | relative viability (Sulindac + Phenformin; first compound 2.53 µM) | relative viability (Sulindac + Phenformin; first compound 8 µM) | relative viability (Sulindac + OSI-027; first compound 0.08 µM) | relative viability (Sulindac + OSI-027; first compound 0.253 µM) | relative viability (Sulindac + OSI-027; first compound 0.8 µM) | relative viability (Sulindac + OSI-027; first compound 2.53 µM) | relative viability (Sulindac + OSI-027; first compound 8 µM) | relative viability ([1]; first compound 0.005 µM) | relative viability ([1]; first compound 0.01581 µM) | relative viability ([1]; first compound 0.05 µM) | relative viability ([1]; first compound 0.1581 µM) | relative viability ([1]; first compound 0.5 µM) | relative viability ([2]; first compound 0.02 µM) | relative viability ([2]; first compound 0.2 µM) | relative viability ([2]; first compound 0.6325 µM) | relative viability ([2]; first compound 2 µM)
1 | 201T | 0.478 | 0.435 | 0.314 | 0.451 | 0.486 | 0.746 | 0.802 | 0.744 | 0.727 | 0.879 | 1.13 | 1.1 | 1.04 | 0.911 | 0.747 | 1.11 | 1.04 | 0.417 | 0.346
2 | A549 | 0.109 | 0.154 | 0.95 | 0.232 | 0.244 | – | – | – | – | – | – | – | – | – | – | – | – | – | –
3 | A-427 | 0.332 | 0.324 | 0.248 | 0.334 | 0.354 | 0.495 | 0.474 | 0.443 | 0.459 | 0.584 | 1.02 | 0.87 | 0.367 | 0.131 | 0.133 | 0.888 | 1.07 | 0.986 | 0.532
4 | ABC-1 | 0.23 | 0.214 | 0.209 | 0.255 | 0.226 | 0.503 | 0.447 | 0.361 | 0.466 | 0.489 | 0.264 | 0.232 | 0.247 | 0.187 | 0.185 | 0.251 | 0.274 | 0.361 | 0.375
5 | BEN | 0.284 | 0.276 | 0.227 | 0.218 | 0.275 | 0.312 | 0.271 | 0.29 | 0.321 | 0.301 | 0.698 | 0.528 | – | 0.253 | 0.163 | 0.779 | 0.869 | 0.655 | 0.655
6 | CAL-12T | 0.662 | 0.615 | 0.418 | 0.529 | 0.681 | 0.534 | 0.847 | 0.51 | 0.61 | 0.696 | 0.343 | 0.227 | 0.233 | 0.244 | 0.186 | 1.13 | 1.05 | 0.911 | 0.751
7 | COR-L23 | 0.506 | 0.487 | 0.339 | 0.51 | 0.549 | 1.09 | 0.777 | 0.609 | 0.743 | 0.94 | 0.69 | 0.282 | 0.272 | 0.104 | 0.0851 | 1.04 | 0.85 | 0.41 | 0.221
8 | COR-L 105 | 0.456 | 0.477 | 0.417 | 0.564 | 0.558 | 0.653 | 0.747 | 0.498 | 0.635 | 0.843 | 0.351 | 0.257 | 0.203 | 0.22 | 0.231 | 0.662 | 0.704 | 0.597 | 0.401
9 | Calu-6 | – | – | – | – | – | – | – | – | – | – | 0.844 | 0.531 | 0.313 | 0.14 | 0.0926 | 0.984 | 0.947 | 0.801 | 0.42
10 | ChaGo-K-1 | 0.592 | 0.51 | 0.481 | 0.5 | 0.596 | 0.68 | 0.644 | 0.398 | 0.57 | 0.61 | 0.992 | – | 0.86 | 0.243 | 0.222 | 0.955 | 1.04 | 0.7 | 0.705
11 | EBC-1 | – | – | – | – | – | – | – | – | – | – | 0.308 | 0.234 | 0.185 | 0.2 | 0.14 | 0.64 | 0.553 | 0.619 | 0.477
12 | EKVX | 0.244 | 0.214 | 0.211 | 0.218 | 0.226 | 0.674 | 0.713 | 0.641 | 0.598 | 0.684 | 0.351 | 0.234 | 0.262 | – | 0.125 | 0.786 | – | 0.154 | 0.132
13 | EMC-BAC-2 | 0.551 | 0.566 | 0.352 | 0.533 | 0.61 | 0.375 | 0.407 | 0.311 | 0.371 | 0.473 | 0.564 | 0.564 | 0.224 | 0.178 | 0.137 | 1.16 | 1.17 | 1.1 | 1.02
14 | EPLC-272H | 0.272 | 0.324 | – | 0.307 | 0.263 | 0.274 | 0.286 | – | 0.256 | 0.327 | 1.01 | 0.195 | 0.447 | 0.181 | 0.126 | 0.891 | 0.733 | 0.376 | 0.254
15 | H3255 | 0.333 | 0.295 | 0.357 | 0.336 | 0.335 | 0.523 | 0.622 | 0.474 | 0.576 | 0.593 | 0.357 | 0.228 | 0.337 | 0.162 | 0.136 | 0.804 | 0.867 | 0.684 | 0.544
16 | HARA | 0.56 | 0.523 | 0.29 | 0.468 | 0.553 | 0.553 | 0.549 | 0.447 | 0.488 | 0.602 | 0.996 | 0.351 | 0.233 | 0.115 | 0.179 | 1.17 | 1.15 | 1.08 | 1.03
